Measured values published in ChEMBL document CHEMBL1268951, “Polyamide amino acids trimers as TAR RNA ligands and anti-HIV agents” (Bioorg Med Chem, 2010).
Active and inactive are the calls of the source. No cut-off for these calls is given here. Where a SMILES comes first, the peptide text is derived from it.

Assay: Inhibition of HIV1 Tat/TAR interaction at 1 to 400 uM by FRET based competition assay

inhibition | SMILES
Active | NCCCC[C@H](NC(=O)CN(CCNC(=O)[C@@H](N)Cc1ccccc1)C(=O)[C@H](CCCCNC(=O)OCc1ccccc1)NC(=O)OCc1ccccc1)C(=O)O
Active | C[C@H](N)C(=O)NCCN(CC(=O)N[C@@H](Cc1ccccc1)C(=O)O)C(=O)[C@H](Cc1ccccc1)NC(=O)OCc1ccccc1
Active | N[C@@H](Cc1ccccc1)C(=O)NCCN(CC(=O)N[C@@H](Cc1ccccc1)C(=O)O)C(=O)[C@H](Cc1ccccc1)NC(=O)OCc1ccccc1
Active | NCCCC[C@H](N)C(=O)NCCN(CC(=O)N[C@@H](Cc1ccccc1)C(=O)O)C(=O)[C@H](Cc1ccccc1)NC(=O)OCc1ccccc1
Active | N=C(N)NCCC[C@H](N)C(=O)NCCN(CC(=O)N[C@@H](Cc1ccccc1)C(=O)O)C(=O)[C@H](Cc1ccccc1)NC(=O)OCc1ccccc1
Active | C[C@H](N)C(=O)NCCN(CC(=O)N[C@@H](CCCCN)C(=O)O)C(=O)[C@H](CCCCNC(=O)OCc1ccccc1)NC(=O)OCc1ccccc1
Active | NCCCC[C@H](NC(=O)CN(CCNC(=O)[C@@H](N)CCCCN)C(=O)[C@H](CCCCNC(=O)OCc1ccccc1)NC(=O)OCc1ccccc1)C(=O)O
Active | N=C(N)NCCC[C@H](N)C(=O)NCCN(CC(=O)N[C@@H](CCCCN)C(=O)O)C(=O)[C@H](CCCCNC(=O)OCc1ccccc1)NC(=O)OCc1ccccc1
Active | C[C@H](N)C(=O)NCCN(CC(=O)N[C@@H](CCCNC(=N)N)C(=O)O)C(=O)[C@H](CCCN(C(=N)NC(=O)OCc1ccccc1)C(=O)OCc1ccccc1)NC(=O)OCc1ccccc1
Active | N=C(N)NCCC[C@H](NC(=O)CN(CCNC(=O)[C@@H](N)Cc1ccccc1)C(=O)[C@H](CCCN(C(=N)NC(=O)OCc1ccccc1)C(=O)OCc1ccccc1)NC(=O)OCc1ccccc1)C(=O)O
Active | N=C(N)NCCC[C@H](NC(=O)CN(CCNC(=O)[C@@H](N)CCCCN)C(=O)[C@H](CCCN(C(=N)NC(=O)OCc1ccccc1)C(=O)OCc1ccccc1)NC(=O)OCc1ccccc1)C(=O)O
Active | N=C(N)NCCC[C@H](NC(=O)CN(CCNC(=O)[C@@H](N)CCCNC(=N)N)C(=O)[C@H](CCCN(C(=N)NC(=O)OCc1ccccc1)C(=O)OCc1ccccc1)NC(=O)OCc1ccccc1)C(=O)O
Active | C[C@H](NC(=O)CN(CCNC(=O)[C@@H](N)Cc1ccccc1)C(=O)[C@H](C)NC(=O)OCc1ccccc1)C(=O)O
Active | C[C@H](NC(=O)CN(CCNC(=O)[C@@H](N)CCCCN)C(=O)[C@H](C)NC(=O)OCc1ccccc1)C(=O)O
Active | C[C@H](NC(=O)CN(CCNC(=O)[C@@H](N)CCCNC(=N)N)C(=O)[C@H](C)NC(=O)OCc1ccccc1)C(=O)O
Active | N=C(N)NCCC[C@H](NC(=O)[C@H](Cc1ccccc1)NC(=O)[C@@H](N)CCCNC(=N)N)C(=O)O (H-Arg-Phe-Arg-OH)
Active | N=C(N)NCCC[C@H](NC(=O)[C@@H](N)Cc1ccccc1)C(=O)N[C@@H](Cc1ccccc1)C(=O)O (H-Phe-Arg-Phe-OH)
Active | N[C@@H](Cc1ccccc1)C(=O)N[C@@H](Cc1ccccc1)C(=O)N[C@@H](Cc1ccccc1)C(=O)O (H-Phe-Phe-Phe-OH)

The next lines start with the compound.

SMILES | inhibition
C[C@H](N)C(=O)NCCN(CC(=O)N[C@@H](C)C(=O)O)C(=O)[C@H](C)NC(=O)OCc1ccccc1 | Active
C[C@H](NC(=O)[C@@H](N)CCCNC(=N)N)C(=O)N[C@@H](CCCCN)C(=O)O (H-Arg-Ala-Lys-OH) | Active
N=C(N)NCCC[C@H](NC(=O)[C@H](CCCNC(=N)N)NC(=O)[C@@H](N)CCCNC(=N)N)C(=O)O (H-Arg-Arg-Arg-OH) | Active
N=C(N)NCCC[C@H](NC(=O)[C@@H](N)CCCNC(=N)N)C(=O)N[C@@H](CCCCN)C(=O)O (H-Arg-Arg-Lys-OH) | Active
N=C(N)NCCC[C@H](NC(=O)[C@H](CCCCN)NC(=O)[C@@H](N)CCCNC(=N)N)C(=O)O (H-Arg-Lys-Arg-OH) | Active
N=C(N)NCCC[C@H](N)C(=O)N[C@@H](CCCCN)C(=O)N[C@@H](CCCCN)C(=O)O (H-Arg-Lys-Lys-OH) | Active
N=C(N)NCCC[C@H](N)C(=O)N[C@@H](Cc1ccccc1)C(=O)N[C@@H](CCCCN)C(=O)O (H-Arg-Phe-Lys-OH) | Active
C[C@H](NC(=O)[C@H](C)NC(=O)[C@@H](N)CCCCN)C(=O)O (H-Lys-Ala-Ala-OH) | Active
C[C@H](NC(=O)[C@H](CCCCN)NC(=O)[C@@H](N)CCCCN)C(=O)O (H-Lys-Lys-Ala-OH) | Active
C[C@H](NC(=O)[C@H](Cc1ccccc1)NC(=O)[C@@H](N)CCCCN)C(=O)O (H-Lys-Phe-Ala-OH) | Active
C[C@H](NC(=O)[C@@H](N)Cc1ccccc1)C(=O)N[C@@H](Cc1ccccc1)C(=O)O (H-Phe-Ala-Phe-OH) | Active
N=C(N)NCCC[C@H](NC(=O)[C@@H](N)Cc1ccccc1)C(=O)N[C@@H](CCCCN)C(=O)O (H-Phe-Arg-Lys-OH) | Active
NCCCC[C@H](NC(=O)[C@H](CCCCN)NC(=O)[C@@H](N)Cc1ccccc1)C(=O)O (H-Phe-Lys-Lys-OH) | Active
NCCCC[C@H](NC(=O)[C@@H](N)Cc1ccccc1)C(=O)N[C@@H](Cc1ccccc1)C(=O)O (H-Phe-Lys-Phe-OH) | Active
NCCCC[C@H](NC(=O)[C@H](Cc1ccccc1)NC(=O)[C@@H](N)Cc1ccccc1)C(=O)O (H-Phe-Phe-Lys-OH) | Active
